What all share (assay): AK assay 384-well format, Prestwick library screening
In experiment [1] the test system is S. aureus strain USA300-0114. The class given is cell-based, Staphylococcus aureus. As to conditions: Staphylococcus aureus, USA300, 3 h.
The subject of experiment [2] is E. coli. The class given is cell-based, Escherichia coli. As to conditions: Escherichia coli, 3 h.
Experiment [3] concerns P. aeruginosa. The class given is cell-based, Pseudomonas aeruginosa. As to conditions: Pseudomonas aeruginosa, 3 h.
For experiment [4], the system named is E. faecium. It is filed as cell-based, Enterococcus faecium. As to conditions: Enterococcus faecium, 3 h.
Experiment [5] has as its system E. cloacae. It is filed as cell-based, Enterobacter cloacae. As to conditions: Enterobacter cloacae, 3 h.
The test system of experiment [6] is K. pneumoniae. The class given is cell-based, Klebsiella pneumoniae. As to conditions: Klebsiella pneumoniae, 3 h.
The subject of experiment [7] is A. baumannii strain 98-37-09. It is filed as cell-based, Acinetobacter baumannii. As to conditions: Acinetobacter baumannii, 983709, 3 h.

SMILES strings stand for the structures. Where a name gives a salt, the structure may show the parent alone. Read-outs that look alike come from different tables or passages of the source.

For `Clc1ccc(COC(Cn2ccnc2)c2ccc(Cl)cc2Cl)cc1` (stereo not shown) [Econazole nitrate], the fold induction at 50 µM in experiment [1] (planktonic S. aureus, 50 μM final drug concentration, 384-well, cutoff for positive-scoring molecules 3-fold increase, read-out: AK-based Prestwick Library Screening Results: S. aureus (increase in extracellular AK activity)) came to 3.7; in experiment [2] (planktonic E. coli, 50 μM final drug concentration, 384-well, cutoff for positive-scoring molecules 3-fold increase, read-out: AK-based Prestwick Library Screening Results: E. coli (increase in extracellular AK activity)), 1.3; in experiment [3] (planktonic P. aeruginosa, 50 μM final drug concentration, 384-well, cutoff for positive-scoring molecules 3-fold increase, read-out: AK-based Prestwick Library Screening Results: P. aeruginosa (increase in extracellular AK activity)), 1.3; in experiment [4] (planktonic E. faecium, 50 μM final drug concentration, 384-well, cutoff for positive-scoring molecules 3-fold increase, read-out: AK-based Prestwick Library Screening Results: E. faecium (increase in extracellular AK activity)) it was 1.5; in experiment [5] (planktonic E. cloacae, 50 μM final drug concentration, 384-well, cutoff for positive-scoring molecules 3-fold increase, read-out: AK-based Prestwick Library Screening Results: E. cloacae (increase in extracellular AK activity)) it was 1.3; in experiment [6] (planktonic K. pneumoniae, 50 μM final drug concentration, 384-well, cutoff for positive-scoring molecules 3-fold increase, read-out: AK-based Prestwick Library Screening Results: K. pneumoniae (increase in extracellular AK activity)), 1.3. Moreover, the fold induction at 50 µM in experiment [7] (planktonic A. baumannii, 50 μM final drug concentration, 384-well, cutoff for positive-scoring molecules 3-fold increase, read-out: AK-based Prestwick Library Screening Results: A. baumannii (increase in extracellular AK activity)) was determined as 6.7.

In the case of `CC[N+](C)(C)c1cccc(O)c1` [Edrophonium chloride], the fold induction at 50 µM in experiment [1] (50 μM final drug concentration, 384-well format, […], read-out: AK-based Prestwick Library Screening Results, S. aureus (increase in extracellular AK activity)) was 0.4; in experiment [2] (50 μM final drug concentration, 384-well format, […], read-out: AK-based Prestwick Library Screening Results, E. coli (increase in extracellular AK activity)), 0.4; in experiment [3] (50 μM final drug concentration, 384-well format, […], read-out: AK-based Prestwick Library Screening Results, P. aeruginosa (increase in extracellular AK activity)), 0.4; in experiment [4] (50 μM final drug concentration, 384-well format, […], read-out: AK-based Prestwick Library Screening Results, E. faecium (increase in extracellular AK activity)) it was 0.8; in experiment [5] (50 μM final drug concentration, 384-well format, […], read-out: AK-based Prestwick Library Screening Results, E. cloacae (increase in extracellular AK activity)) it was 0.3; in experiment [6] (50 μM final drug concentration, 384-well format, […], read-out: AK-based Prestwick Library Screening Results, K. pneumoniae (increase in extracellular AK activity)), 0.5. The fold induction at 50 µM in experiment [7] (50 μM final drug concentration, 384-well format, […], read-out: AK-based Prestwick Library Screening Results, A. baumannii (increase in extracellular AK activity)) amounted to 0.4.

For the compound `Cc1c2ccncc2c(C)c2c1[nH]c1ccccc12` [Ellipticine], the fold induction at 50 µM turned out to be 0.8 in experiment [1] (50 μM final drug concentration, planktonic, cutoff for positive 3-fold increase, read-out: AK-based Prestwick Library Screening Results, S. aureus (fold increase in extracellular AK activity)); 1.3 in experiment [2] (50 μM final drug concentration, planktonic, cutoff for positive 3-fold increase, read-out: AK-based Prestwick Library Screening Results, E. coli (fold increase in extracellular AK activity)); 1.2 in experiment [3] (50 μM final drug concentration, planktonic, cutoff for positive 3-fold increase, read-out: AK-based Prestwick Library Screening Results, P. aeruginosa (fold increase in extracellular AK activity)); 1.3 in experiment [4] (50 μM final drug concentration, planktonic, cutoff for positive 3-fold increase, read-out: AK-based Prestwick Library Screening Results, E. faecium (fold increase in extracellular AK activity)); 1.8 in experiment [5] (50 μM final drug concentration, planktonic, cutoff for positive 3-fold increase, read-out: AK-based Prestwick Library Screening Results, E. cloacae (fold increase in extracellular AK activity)); 1 in experiment [6] (50 μM final drug concentration, planktonic, cutoff for positive 3-fold increase, read-out: AK-based Prestwick Library Screening Results, K. pneumoniae (fold increase in extracellular AK activity)). In addition, the fold induction at 50 µM in experiment [7] (50 μM final drug concentration, planktonic, cutoff for positive 3-fold increase, read-out: AK-based Prestwick Library Screening Results, A. baumannii (fold increase in extracellular AK activity)) is 4.1.

Consider `CC[C@H]1CN2CCc3cc(OC)c(OC)cc3[C@@H]2C[C@@H]1C[C@H]1NCCc2cc(OC)c(OC)cc21` [Emetine dihydrochloride], for which the fold induction at 50 µM is 0.5 in experiment [1] (planktonic S. aureus, 50 μM final drug concentration, cutoff for positive-scoring molecules 3-fold increase, read-out: AK-based Prestwick Library Screening Results, S. aureus (increase in extracellular AK activity)); 0.5 in experiment [2] (planktonic E. coli, 50 μM final drug concentration, cutoff for positive-scoring molecules 3-fold increase, read-out: AK-based Prestwick Library Screening Results, E. coli (increase in extracellular AK activity)); 0.5 in experiment [3] (planktonic P. aeruginosa, 50 μM final drug concentration, cutoff for positive-scoring molecules 3-fold increase, read-out: AK-based Prestwick Library Screening Results, P. aeruginosa (increase in extracellular AK activity)); 0.9 in experiment [4] (planktonic E. faecium, 50 μM final drug concentration, cutoff for positive-scoring molecules 3-fold increase, read-out: AK-based Prestwick Library Screening Results, E. faecium (increase in extracellular AK activity)); 0.5 in experiment [5] (planktonic E. cloacae, 50 μM final drug concentration, cutoff for positive-scoring molecules 3-fold increase, read-out: AK-based Prestwick Library Screening Results, E. cloacae (increase in extracellular AK activity)); 0.6 in experiment [6] (planktonic K. pneumoniae, 50 μM final drug concentration, cutoff for positive-scoring molecules 3-fold increase, read-out: AK-based Prestwick Library Screening Results, K. pneumoniae (increase in extracellular AK activity)). Further, the fold induction at 50 µM in experiment [7] (planktonic A. baumannii, 50 μM final drug concentration, cutoff for positive-scoring molecules 3-fold increase, read-out: AK-based Prestwick Library Screening Results, A. baumannii (increase in extracellular AK activity)) turned out to be 0.5.

Take `CCOC(=O)[C@H](CCc1ccccc1)N[C@@H](C)C(=O)N1CCC[C@H]1C(=O)O` [Enalapril maleate]: the fold induction at 50 µM in experiment [1] (planktonic S. aureus, 50 μM final drug concentration, 384-well, […], read-out: AK-based Prestwick Library Screening Results: S. aureus (increase in extracellular AK activity)) is 1.3; in experiment [2] (planktonic E. coli, 50 μM final drug concentration, 384-well, […], read-out: AK-based Prestwick Library Screening Results: E. coli (increase in extracellular AK activity)) it was 1.2; in experiment [3] (planktonic P. aeruginosa, 50 μM final drug concentration, 384-well, […], read-out: AK-based Prestwick Library Screening Results: P. aeruginosa (increase in extracellular AK activity)), 1.2; in experiment [4] (planktonic E. faecium, 50 μM final drug concentration, 384-well, […], read-out: AK-based Prestwick Library Screening Results: E. faecium (increase in extracellular AK activity)), 1.1; in experiment [5] (planktonic E. cloacae, 50 μM final drug concentration, 384-well, […], read-out: AK-based Prestwick Library Screening Results: E. cloacae (increase in extracellular AK activity)), 1.3; in experiment [6] (planktonic K. pneumoniae, 50 μM final drug concentration, 384-well, […], read-out: AK-based Prestwick Library Screening Results: K. pneumoniae (increase in extracellular AK activity)), 1.2. Further, the fold induction at 50 µM in experiment [7] (planktonic A. baumannii, 50 μM final drug concentration, 384-well, […], read-out: AK-based Prestwick Library Screening Results: A. baumannii (increase in extracellular AK activity)) stood at 1.3.

`C=CCOC(Cn1ccnc1)c1ccc(Cl)cc1Cl` (stereo not shown) [Enilconazole]: the fold induction at 50 µM in experiment [1] (50 μM final drug concentration, cutoff for positive-scoring molecules 3-fold increase, read-out: AK-based Prestwick Library Screening Results, S. aureus (fold increase in extracellular AK activity)) stood at 0.4; in experiment [2] (50 μM final drug concentration, cutoff for positive-scoring molecules 3-fold increase, read-out: AK-based Prestwick Library Screening Results, E. coli (fold increase in extracellular AK activity)), 0.5; in experiment [3] (50 μM final drug concentration, cutoff for positive-scoring molecules 3-fold increase, read-out: AK-based Prestwick Library Screening Results, P. aeruginosa (fold increase in extracellular AK activity)) it was 0.4; in experiment [4] (50 μM final drug concentration, cutoff for positive-scoring molecules 3-fold increase, read-out: AK-based Prestwick Library Screening Results, E. faecium (fold increase in extracellular AK activity)) it was 1.1; in experiment [5] (50 μM final drug concentration, cutoff for positive-scoring molecules 3-fold increase, read-out: AK-based Prestwick Library Screening Results, E. cloacae (fold increase in extracellular AK activity)), 0.4; in experiment [6] (50 μM final drug concentration, cutoff for positive-scoring molecules 3-fold increase, read-out: AK-based Prestwick Library Screening Results, K. pneumoniae (fold increase in extracellular AK activity)), 0.5. The fold induction at 50 µM in experiment [7] (50 μM final drug concentration, cutoff for positive-scoring molecules 3-fold increase, read-out: AK-based Prestwick Library Screening Results, A. baumannii (fold increase in extracellular AK activity)) worked out at 0.4.

On to `C[C@]12CC[C@H](O)C[C@@H]1CC[C@@H]1[C@@H]2CC[C@]2(C)C(=O)CC[C@@H]12` [Epiandrosterone], for which the fold induction at 50 µM came to 0.6 in experiment [1] (read-out: AK-based Prestwick Library Screening Results, S. aureus (increase in extracellular AK activity)); 0.9 in experiment [2] (read-out: AK-based Prestwick Library Screening Results, E. coli (increase in extracellular AK activity)); 0.8 in experiment [3] (read-out: AK-based Prestwick Library Screening Results, P. aeruginosa (increase in extracellular AK activity)); 1 in experiment [4] (read-out: AK-based Prestwick Library Screening Results, E. faecium (increase in extracellular AK activity)); 1.1 in experiment [5] (read-out: AK-based Prestwick Library Screening Results, E. cloacae (increase in extracellular AK activity)); 0.7 in experiment [6] (read-out: AK-based Prestwick Library Screening Results, K. pneumoniae (increase in extracellular AK activity)). Also, the fold induction at 50 µM in experiment [7] (read-out: AK-based Prestwick Library Screening Results, A. baumannii (increase in extracellular AK activity)) is 0.8.

Source of the values: patent US10004701B2, “Methods and compositions for treating infection” (UNIVERSITY OF ROCHESTER, priority 2012, dated 2018).
